In US20210347736A1, “CRYSTALLINE FORMS OF A FARNESOID X RECEPTOR AGONIST” (Metacrine, Inc., priority 2018, published 2021):
“Also recorded” adds a separate entry of the source.

Assays:
hFXR = molecular target: T1, hFXR (Homo sapiens, UniProt Q96RI1); assay: In Vitro FXR Assay (TK hFXR luciferase reporter in transfected CV-1 cells); format: cell-based; settings: CV-1 cells transfected with hFXR, hRXR, TK-ECRE-luc; 18 hrs incubation; luminescence
T1 construct: expressed in transfected cells; host or cells: CV-1 cells
T1 sequence (Q96RI1 1-486): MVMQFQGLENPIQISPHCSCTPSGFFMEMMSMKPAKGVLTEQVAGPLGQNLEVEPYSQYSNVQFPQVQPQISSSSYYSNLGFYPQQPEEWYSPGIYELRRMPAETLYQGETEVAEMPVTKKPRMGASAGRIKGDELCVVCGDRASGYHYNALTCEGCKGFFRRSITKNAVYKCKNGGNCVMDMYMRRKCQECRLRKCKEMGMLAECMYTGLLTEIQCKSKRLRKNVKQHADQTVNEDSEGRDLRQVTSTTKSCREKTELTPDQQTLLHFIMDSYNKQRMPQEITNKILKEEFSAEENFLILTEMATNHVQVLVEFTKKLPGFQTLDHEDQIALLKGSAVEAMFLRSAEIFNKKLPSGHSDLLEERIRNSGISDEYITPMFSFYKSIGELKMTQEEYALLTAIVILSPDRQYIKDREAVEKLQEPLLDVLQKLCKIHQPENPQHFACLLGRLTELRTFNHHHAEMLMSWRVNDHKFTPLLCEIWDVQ
T1 sequence (P19793 1-462 partner): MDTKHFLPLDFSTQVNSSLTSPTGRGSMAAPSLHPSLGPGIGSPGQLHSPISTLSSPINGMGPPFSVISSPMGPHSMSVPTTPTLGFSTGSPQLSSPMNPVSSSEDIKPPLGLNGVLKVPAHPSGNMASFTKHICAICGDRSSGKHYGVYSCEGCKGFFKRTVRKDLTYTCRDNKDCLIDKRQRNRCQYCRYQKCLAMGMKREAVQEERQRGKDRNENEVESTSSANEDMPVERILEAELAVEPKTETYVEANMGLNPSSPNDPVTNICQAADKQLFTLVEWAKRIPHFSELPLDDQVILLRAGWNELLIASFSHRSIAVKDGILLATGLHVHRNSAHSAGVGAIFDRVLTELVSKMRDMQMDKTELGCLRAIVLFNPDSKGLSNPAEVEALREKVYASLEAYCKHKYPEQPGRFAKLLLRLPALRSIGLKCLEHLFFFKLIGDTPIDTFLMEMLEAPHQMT
Description: CV-1 cells were seeded at a density of 2,000,000 cells in a T175 flask with DMEM+10% charcoal double-stripped FBS and incubated at 37° C. in 5% CO2 for 18 h (O/N).
After 18 h of incubation, the medium in the T175 flask was changed with fresh DMEM+10% charcoal super-stripped serum. In a polypropylene tube, 2500 μL OptiMEM (Life Technologies, Cat #31985-062) was combined with expression plasmids for hFXR, hRXR, TK-ECRE-luc and pCMX-YFP. The tube was then briefly vortexed and incubated at room temperature for 5 minutes. Transfection reagent (X-tremeGENE HP from Roche, Cat #06 366 236 001) was added to the OptiMEM/plasmid mixture vortexed and incubated at room temperature for 20 minutes. Following incubation, the transfection reagent/DNA mixture complex was added to cells in the T175 flask and the cells were incubated at 37° C. in 5% CO2 for 18 h (O/N).
Compound 1 was serially diluted in DMSO and added to transfected CV-1 cells. The cells were then incubated for 18 hrs. The next day cells were lysed and examined for luminescence.

[1] = Storage stability of Form 1 for 7 days at elevated humidity (HPLC purity, XRPD); format: physicochemical
Description: X-Ray Powder Diffraction patterns were collected on a Bruker D8 diffractometer using Cu Kα radiation (40 kV, 40 mA), 0-20 goniometer, and divergence of V4 and receiving slits, a Ge monochromator and a Lynxeye detector. The instrument was performance checked using a certified Corundum standard (NIST 1976). The software used for data collection was Diffrac Plus XRD Commander v2.6.1 and the data were analysed and presented using Diffrac Plus EVA v15.0.0.0.
Samples were run under ambient conditions as flat plate specimens using powder as received. The sample was gently packed into a cavity cut into polished, zero-background (510) silicon wafer. The sample was rotated in its own plane during analysis. The parameters for data collection were: angular range, 2 to 42° 2θ; step size, 0.05° 2θ; collection time, 0.5 s/step.
Purity analysis was performed on an Agilent HP1100 series system equipped with a diode array detector and using ChemStation software vB.04.03 using the method detailed in Table 4 below:
Further, Form 1 of Compound 1 was unchanged by XRPD after 7 days at 25° C. and 97% RH (see FIG. 6, trace (b)).
Further, Form 1 of Compound 1 was unchanged by XRPD after 7 days at 40° C. and 75% RH (see FIG. 6, trace (c)).

[2] = Gravimetric Vapor Sorption (GVS); format: physicochemical
Description: Sorption isotherms were obtained using a SMS DVS Intrinsic moisture sorption analyser, controlled by DVS Intrinsic Control software v1.0.1.2 (or v1.0.1.3). The sample temperature was maintained at 25° C. by the instrument controls. The humidity was controlled by mixing streams of dry and wet nitrogen, with a total flow rate of 200 ml/min The relative humidity was measured by a calibrated Rotronic probe (dynamic range of 1.0-100% RH), located near the sample. The weight change, (mass relaxation) of the sample as a function of % RH was constantly monitored by the microbalance (accuracy ±0.005 mg).
Typically 5-20 mg of sample was placed in a tared mesh stainless steel basket under ambient conditions. The sample was loaded and unloaded at 40% RH and 25° C. (typical room conditions). A moisture sorption isotherm was performed as outlined below (2 scans giving 1 complete cycle). The standard isotherm was performed at 25° C. at 10% RH intervals over a 0-90% RH range. Data analysis was carried out using Microsoft Excel using DVS Analysis Suite v6.2 (or v6.1 or v6.0).
The sample was recovered after completion of the isotherm and re-analysed by XRPD.

[3] = after 7 days at 25° C. and 97% RH
[4] = after 7 days at 40° C. and 75% RH

SMILES | EC50 (hFXR) [µM] | HPLC purity after storage [1, 3] [% AUC] | change by XRPD after storage [1, 3] | HPLC purity after storage [1, 4] [% AUC] | change by XRPD after storage [1, 4] | Post-GVS analysis by XRPD ([2]; after GVS) | moisture uptake by GVS ([2]; between 0-90% RH, 25° C.) [%] | hygroscopicity / moisture uptake by GVS (in words) ([2]; summary statement)
COc1ccc([C@H]2CC[C@H](CN(c3cccc(-c4cnn(C5CC5)c4)c3)C(=O)[C@H]3CC[C@H](O)CC3)CC2)cc1C [Compound 1, trans-N-(3-(1-cyclopropyl-1H-pyrazol-4-yl)phenyl)-4-hydroxy-N-((trans-4-(4-methoxy-3-methylphenyl)cyclohexyl)methyl)cyclohexanecarboxamide] | ≤ 0.25 | – | – | – | – | – | – | –
COc1ccc([C@H]2CC[C@H](CN(c3cccc(-c4cnn(C5CC5)c4)c3)C(=O)[C@H]3CC[C@H](O)CC3)CC2)cc1C [Form 1 of Compound 1, trans-N-(3-(1-cyclopropyl-1H-pyrazol-4-yl)phenyl)-4-hydroxy-N-((trans-4-(4-methoxy-3-methylphenyl)cyclohexyl)methyl)cyclohexanecarboxamide] | – | 99.40 | unchanged; also recorded: no changes | 99.48 | unchanged; also recorded: no changes | no change | 0.02 | non-hygroscopic; also recorded: No significant moisture uptake
